Data reported in PubChem BioAssay (NCI).
Several values for one entry are separate records, joined by “and”; a condition that tells them apart may be missing. Equal values may be shown once.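 Protocol summary: plate cells (96-well), add compound at 5 concentrations, incubate 48 h, interpolate endpoints linearly. GI50: concentration for 50% inhibition of growth. TGI: total growth inhibition.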

Experiments:
Assay in all cases: NCI anticancer screen, dose series, 48 h
KM20L2 colon = tested on: KM20L2 colon
DMS 114 small cell lung = tested on: DMS 114 small cell lung
DMS 273 small cell lung = tested on: DMS 273 small cell lung
SNB-78 CNS = tested on: SNB-78 CNS
MDA-N = tested on: MDA-N
M19-MEL melanoma = tested on: M19-MEL melanoma
SN12K1 renal = tested on: SN12K1 renal
LXFL 529 NSCLC = tested on: LXFL 529 NSCLC
XF 498 CNS = tested on: XF 498 CNS
RXF-631 renal = tested on: RXF-631 renal

SMILES | TGI (KM20L2 colon) | TGI (DMS 114 small cell lung) | TGI (DMS 273 small cell lung) | TGI (SNB-78 CNS) | TGI (MDA-N) | TGI (M19-MEL melanoma) | TGI (LXFL 529 NSCLC) | other results
CNCCN=c1ccc2c3c1c(O)c1c(O)ccc(=O)c1c3[nH]n2CCNCCO | 6.7 µM and 12.2 µM and 1.51 µM | 2.91 µM and 0.834 µM | 1.59 µM and 0.336 µM | 10.5 µM | 2.7 µM | 2.72 µM and 1.13 µM |  | GI50 (DMS 273 small cell lung): 0.053 µM and 0.0978 µM; GI50 (M19-MEL melanoma): 0.147 µM and 0.179 µM; GI50 (SN12K1 renal): 0.05 µM; TGI (SN12K1 renal): 2.54 µM and 0.598 µM
O=S1Nc2c(Cl)cc(Cl)c(Cl)c2S1 (stereo not drawn) | > 100 µM | > 100 µM | > 100 µM | > 100 µM |  | > 100 µM | > 100 µM | 
Cc1c([N+](=O)[O-])oc2ccc3ccccc3c12 |  |  |  |  | > 100 µM |  |  | 
CCc1cccc(C)c1NC(=O)CC1C(=O)Nc2ccccc2S1(=O)=O (stereo not drawn) | 34.2 µM | 34.1 µM | 25 µM | 53.7 µM |  | 38.9 µM | 37 µM | TGI (XF 498 CNS): 26.2 µM; TGI (RXF-631 renal): 33 µM
CCN(CC)C(=S)[S][Bi]([S]C(=S)N(CC)CC)[S]C(=S)N(CC)CC | 1.23 µM | 0.0444 µM | 0.221 µM | 2.13 µM | 2.04 µM | 0.314 µM | 0.275 µM | GI50 (LXFL 529 NSCLC): 0.142 µM; GI50 (KM20L2 colon): 0.128 µM; GI50 (DMS 114 small cell lung): 0.0193 µM; GI50 (DMS 273 small cell lung): 0.056 µM; GI50 (SNB-78 CNS): 0.598 µM; GI50 (MDA-N): 0.728 µM; GI50 (M19-MEL melanoma): 0.162 µM
O=c1oc2ccccc2c(O)c1C(C/C(CCN1CCCC1)=N\Nc1ccccc1)c1ccccc1 (stereo not drawn) | > 100 µM |  |  | > 100 µM |  | > 100 µM | > 100 µM | TGI (XF 498 CNS): > 100 µM
COC(=O)c1nn(C(=N)c2ccc(Cl)cc2)c2c1CCC2 | > 100 µM | > 100 µM | > 100 µM | > 100 µM |  | > 100 µM | > 100 µM | TGI (XF 498 CNS): > 100 µM
CCCCCCCCCCCCCCCCCC(=O)Nc1ccn(C2OC(CO)C(O)C2O)c(=O)n1 (stereo not drawn) | > 100 µM |  | > 100 µM | > 100 µM | > 100 µM | > 100 µM | > 100 µM | 
OCCN1CCN(CC/C=C2/c3ccccc3Sc3ccc(Cl)cc32)CC1 | 5.4 µM | 30.5 µM | 18.9 µM | 30.2 µM |  | 4.09 µM | 17.9 µM | TGI (XF 498 CNS): 25.4 µM
CC(=C/c1ccccc1)/C=C1/NC(=S)N(/C=C2\C(=O)Oc3ccccc3C2=O)C1=O |  |  |  |  | > 100 µM |  |  | 
C[C@]12CCC(=O)C=C1CC[C@@H]1C2CC[C@]2(C)c3nn(-c4ccccc4)nc3CC12 (stereo partly drawn) | > 100 µM | > 100 µM | > 100 µM | > 100 µM |  | > 100 µM | > 100 µM | TGI (XF 498 CNS): > 100 µM
Oc1c(CN2CCN(c3ccccc3)CC2)cc(Br)c2cccnc12 |  |  |  |  | > 100 µM |  |  | 
CC(=O)[CH-]C(=O)c1ccccc1.CC(=O)[CH-]C(=O)c1ccccc1.CC[O-].O=C1c2ccccc2C(=O)c2c1ccc(O)c2[O-].[Ti+4] | > 100 µM |  | > 100 µM |  |  | 80.2 µM | > 100 µM | GI50 (KM20L2 colon): 80.5 µM
CN(C)CC/C(=N\Nc1ccc(Cl)cc1Cl)c1ccccc1 | 27.5 µM | 27.6 µM | 27 µM | 27.6 µM |  | 31.5 µM | 25.9 µM | 
CCCCCCCCCCC(C)CCCCCCC(=O)O (stereo not drawn) |  | > 100 µM | > 100 µM | > 100 µM |  | > 100 µM | > 100 µM | TGI (RXF-631 renal): > 100 µM
Cc1ccc([C@]2(C)CC[C@H](C)/C2=C\Br)c(O)c1 |  |  |  |  | 10.3 µM |  |  | GI50 (MDA-N): 2.74 µM
C/C=N\N1C(=O)c2ccccc2C1=O | > 100 µM | > 100 µM | > 100 µM | > 100 µM |  | > 100 µM | > 100 µM | TGI (XF 498 CNS): > 100 µM; TGI (RXF-631 renal): > 100 µM
CCN(CC)CCNC(=O)c1cccc2nc3ccccc3nc12 | 67.8 µM | 22.3 µM | > 100 µM | 71.2 µM |  |  | > 87.9 µM | 
O=C(O)c1cc2ccccc2c2c1C(=O)c1ccccc1-2 |  |  |  |  | > 100 µM |  |  | 
O=C(O)C(Oc1nc(=S)[nH]c(=S)[nH]1)(c1ccc(Cl)cc1)c1ccc(Cl)cc1 |  |  |  |  | > 100 µM |  |  | 
N.N.O=P([O-])([O-])C1(P(=O)([O-])[O-])CCCCCN1.[Pt+2] | > 100 µM |  | > 100 µM | > 100 µM |  |  | > 100 µM | GI50 (LXFL 529 NSCLC): > 100 µM; GI50 (KM20L2 colon): > 100 µM; GI50 (DMS 273 small cell lung): > 100 µM; GI50 (SNB-78 CNS): 78.4 µM
O=C(O)/C(=C\c1ccncc1)c1cccc2ccccc12 |  |  |  |  | > 100 µM |  |  | 
NNC(=O)C(=O)N/N=C(\CCC(=O)Nc1ccc(Cl)cc1)Cc1nc2ccccc2s1 | > 100 µM | 54.8 µM | 67.8 µM | > 100 µM |  | 36.9 µM | > 100 µM | 
CC(C)=CCCC(C)C1=C(O)C(=O)C(C)=CC1=O (stereo not drawn) |  |  |  |  | 21.7 µM |  |  | 
